Where a chain is given by its changes, count along the chain named. Names and notes keep the numbering of the source.
Key:
ΔmadB ΔfabH1 P. putida = test: Growth curves with straight-chain fatty acid supplementation (microplate reader); assay type: cell-based, Pseudomonas putida KT2440; settings: fatty acid sodium salt at 100 μg/mL, modified M9 with glucose, 30° C.
Procedure: (§1) Microplate reader experiments. Microplate reader experiments were performed by inoculating seed cultures from glycerol stocks into 10 mL of LB Broth (Miller; Sigma-Aldrich) with appropriate antibiotics in a 125 mL flask and incubating overnight at 30° C. (P. putida) or 37° C. (E. coli) and 225 rpm. Overnight cultures were then used to inoculate a second seed culture into 10 mL of LB Broth (Miller; Sigma-Aldrich) with appropriate antibiotics in a 125 mL flask starting at an optical density of 0.2 measured at 600 nm (0D600) using a GENESYS™ 140 Visible Light Spectrophotometer (Thermo Scientific). The second seed cultures were incubated at 30° C. (P. putida) or 37° C. (E. coli) at 225 rpm for 2-4 hrs until an OD600 of approximately 2 was reached. The second seed cultures were centrifuged at 8,000 rpm for 3 min, the pellets were washed with 1× M9, minimal salts (Sigma-Aldrich) three times, and resuspended to an OD600=3.0. Cells (10 μL) were transferred to five replicate wells in a 100-well Honeycomb 2 plate (Growth Curves USA) containing 290 μL of growth medium, corresponding to initial OD600=0.1. E. coli strains were grown in LB Broth (Miller; Sigma-Aldrich) at 37° C. and supplemented with 50 μg/mL kanamycin and 0.1 mM isopropylthio-β-galactoside (IPTG; GoldBio) when appropriate. P. putida strains were grown in modified M9 minimal media containing 6.78 g/L Na2HPO4, 3 g/L KH2PO4, 1 g/L NH4C1, 0.5 g/L NaCl, 2 mM MgSO4, 100 μM CaCl2, and 2 g/L glucose at 30° C. For fatty acid supplementation experiments, sodium salts of a given fatty acid (Sigma-Aldrich) were added to a final concentration of 100 μg/mL. OD600 measurements were acquired every 15 min with a Bioscreen C Pro (Growth Curves USA) and plate was shaken continuously. Maximum specific growth rates were calculated using a spline model (https://github.com/scott-saunders/growth_curve_fitting).

[1] = system: P. putida KT2440 ΔmadB ΔfabH1; test: Growth of P. putida ΔmadB ΔfabH1 supplemented with straight-chain fatty acids; assay type: cell-based, Pseudomonas putida KT2440; settings: 100 μg/mL, modified M9 minimal medium, 30° C.
Procedure: as §1

MadB = test: Transformation of non-EcAcpP substrate by MadB (HPLC / LC-MS detection); assay type: biochemical, Pseudomonas putida KT2440; settings: 1 mM substrate, 5 μM MadB, HEPES pH 7.5, room temperature
Procedure: Transformation of non-EcAcpP substrate by MadB. […] The reaction contained 1 mM of the alternate substrate and 5 μM of MadB in HEPES (I=0.1 M) pH 7.5 supplemented with 10 mM MgCl2 and 1 mM TCEP. The reaction was incubated at room temperature with an intermittent agitation for −1 hour prior to being passed through a 0.2 μm filter and frozen until further analysis.
Detection of various CoA analytes in the samples were performed on an Agilent 1200 HPLC system (Agilent Technologies) equipped with an Agilent 6120 mass spectrometer detector (MS). Each sample and standard were injected at a volume of 2 μL on a Phenomenex Luna C18(2)-HST column 100A′, […], 2.0×100 mm column (Phenomenex). The column temperature was maintained at 45° C. and the buffers used to separate the analytes of interest was 0.1% formic acid in water (A)/0.1% formic acid in acetonitrile (B). A gradient program was used to separate the analytes of interest: (A)=100% and (B)=0% at time t=0; (A)=100% and (B)=0% at t=1 min; (A)=50% and (B)=50% at t=7.65 min; (A)=30% and (B)=70% at t=9.33 min; (A)=30% and (B)=70% at t=10.67 min; (A)=100% and (B)=0% at t=10.68 min; (A)=100% and (B)=0% at t=13 min. The flow rate was held constant at 0.50 mL/min resulting in a run time of 13 minutes. The MS system was setup in positive electrospray ionization mode with a gas temperature of 350° C., drying gas at 12 L/min, nebulizer pressure set to 35 psig, and a Vcap voltage of 3000v. A total of four different masses in SIM mode from the MS detector were used to determine the presence and or absence of each analyte of interest. […] One standard from each analyte was used to determine the elution order and retention times of the compounds.
Detection of malonic and acetic acid was performed on an Agilent 1290 HPLC system (Agilent Technologies) equipped with an Agilent G7117A diode array detector (DAD). NREL's laboratory analytical procedure “Determination of Structural Carbohydrates and Lignin in Biomass” (Sluiter et al., 2012) HPLC method was used to detect the analytes of interest as outlined below. […]

[2] = target: T1, Pseudomonas putida KT2440 MadB (PP_0262) variant Asn45Ala (N45A) (Pseudomonas putida, UniProt Q88R72, N45A); test: ITC steady-state kinetics of malonyl-CoA decarboxylation
T1 sequence (Q88R72 1-151 N45A): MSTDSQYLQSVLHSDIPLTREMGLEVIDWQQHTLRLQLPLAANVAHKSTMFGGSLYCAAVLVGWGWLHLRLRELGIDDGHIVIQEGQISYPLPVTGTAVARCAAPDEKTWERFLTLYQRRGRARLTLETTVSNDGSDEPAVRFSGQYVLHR
From the text: (§2) Kinetic determination using ITC.
(§3) Both variants were purified similarly to the wild-type MadB.

[3] = target: T2, Pseudomonas putida KT2440 MadB (PP_0262) variant His46Ala (H46A) (Pseudomonas putida, UniProt Q88R72, H46A); test: as above
T2 sequence (Q88R72 1-151 H46A): T1 sequence (Q88R72 1-151 N45A) with A45N, H46A
From the text: as §2, §3

[4] = target: T3, Pseudomonas putida KT2440 MadB (PP_0262, malonyl-ACP decarboxylase), wild type (Pseudomonas putida, UniProt Q88R72); settings: malonyl-CoA decarboxylation, ITC, 30° C., pH 7.5
T3 sequence (Q88R72 1-151): T1 sequence (Q88R72 1-151 N45A) with A45N

[5] = substrate: CC(C)(COP(=O)(O)OP(=O)(O)OC[C@H]1O[C@@H](n2cnc3c(N)ncnc32)[C@H](O)[C@@H]1OP(=O)(O)O)[C@@H](O)C(=O)NCCC(=O)NCCSC(=O)CC(=O)O; test: purified protein, by the assay type; settings: other: malonyl-CoA decarboxylation, ITC, 30° C., pH 7.5
[6] = malonyl-CoA, Asn45Ala vs wild-type
[7] = malonyl-CoA, His46Ala vs wild-type

CCCCCCCC(=O)O [C8]
effect on growth of ΔmadB ΔfabH1 (ΔmadB ΔfabH1 P. putida): dramatic improvement of growth | effect of fatty acid supplementation on growth [1]: dramatic improvement of growth

CCCC(=O)O [C4]
effect on growth of ΔmadB ΔfabH1 (ΔmadB ΔfabH1 P. putida): inhibited | effect of fatty acid supplementation on growth [1]: inhibited

CC(=O)O [C2]
effect on growth of ΔmadB ΔfabH1 (ΔmadB ΔfabH1 P. putida): had no effect on growth | effect of fatty acid supplementation on growth [1]: no effect on growth

O=C(O)CC(=O)O [malonate]
decarboxylation by MadB (MadB): not

CCCCCCCCCC(=O)O [C10]
effect on growth of ΔmadB ΔfabH1 (ΔmadB ΔfabH1 P. putida): dramatic improvement of growth | effect of fatty acid supplementation on growth [1]: dramatic improvement of growth

CC(C)(COP(=O)(O)OP(=O)(O)OC[C@H]1O[C@@H](n2cnc3c(N)ncnc32)[C@H](O)[C@@H]1OP(=O)(O)O)[C@@H](O)C(=O)NCCC(=O)NCCSC(=O)CC(=O)O [malonyl-CoA]
decarboxylation by MadB (MadB): capable of decarboxylating | Kcat ([2]; malonyl-CoA decarboxylation, Asn45Ala, ITC, 30° C., pH 7.5): 0.06 ± 0.01 s⁻¹ | Michaelis constant relative to wild-type [2, 6]: about half | lower catalytic efficiency compared to the wild-type enzyme [2, 6]: 13 fold | Kcat ([3]; malonyl-CoA decarboxylation, His46Ala, ITC, 30° C., pH 7.5): 0.45 ± 0.01 s⁻¹ | Michaelis constant relative to wild-type [3, 7]: about half | lower catalytic efficiency compared to the wild-type enzyme [3, 7]: 1.5 fold | Kcat [4]: 1.4 ± 0.1 s⁻¹

CC(C(=O)O)C(=O)SCCNC(=O)CCNC(=O)[C@H](O)C(C)(C)COP(=O)(O)OP(=O)(O)OC[C@H]1O[C@@H](n2cnc3c(N)ncnc32)[C@H](O)[C@@H]1OP(=O)(O)O (stereo partly shown) [methylmalonyl-CoA]
decarboxylation by MadB (MadB): capable of decarboxylating

CCCCCC(=O)O [C6]
effect on growth of ΔmadB ΔfabH1 (ΔmadB ΔfabH1 P. putida): appeared to improve growth, albeit less significantly | effect of fatty acid supplementation on growth [1]: improve growth, albeit less significantly

B1: Pseudomonas putida KT2440 MadB (PP_0262, malonyl-ACP decarboxylase), wild type (Pseudomonas putida KT2440) (protein)
chain: T1 sequence (Q88R72 1-151 N45A) with A45N
Km ([5]; wild-type MadB): 12 ± 1 mM | kcat ([5]; wild-type MadB): 1.4 s⁻¹ | kcat/Km ([5]; wild-type MadB): 120 M⁻¹ s⁻¹

B2: Pseudomonas putida KT2440 MadB (PP_0262) variant His46Ala (H46A) (Pseudomonas putida KT2440; H46A) (protein)
chain: T1 sequence (Q88R72 1-151 N45A) with A45N, H46A
Km ([5]; His46Ala): 5.7 ± 0.2 mM

B3: Pseudomonas putida KT2440 MadB (PP_0262) variant Asn45Ala (N45A) (Pseudomonas putida KT2440; N45A) (protein)
chain: T1 sequence (Q88R72 1-151 N45A)
Km ([5]; Asn45Ala): 6.9 ± 0.5 mM

Source: patent US20230416791A1, “METHOD TO PRODUCE BRANCHED-CHAIN POLYHYDROXYALKANOATES AND BRANCHED-CHAIN 3-HYDROXYACIDS FROM GLUCOSE” (Alliance for Sustainable Energy, LLC, priority 2022, published 2023)
